# The source made the active and inactive calls. The rule behind the calls is not given here.
# Tests used:
# P2X purinoceptor 7 [1] = target: T1, P2X purinoceptor 7 (Homo sapiens, UniProt Q99572); experiment: Antagonist activity at P2X7 in LPS/IFN gamma differentiated human THP-1 cells assessed as inhibition of BzATP-induced IL-1beta release preincubated for 30 mins followed by BzATP stimulation for 30 mins by ELISA; type: cell-based
# T1 sequence (Q99572 whole entry): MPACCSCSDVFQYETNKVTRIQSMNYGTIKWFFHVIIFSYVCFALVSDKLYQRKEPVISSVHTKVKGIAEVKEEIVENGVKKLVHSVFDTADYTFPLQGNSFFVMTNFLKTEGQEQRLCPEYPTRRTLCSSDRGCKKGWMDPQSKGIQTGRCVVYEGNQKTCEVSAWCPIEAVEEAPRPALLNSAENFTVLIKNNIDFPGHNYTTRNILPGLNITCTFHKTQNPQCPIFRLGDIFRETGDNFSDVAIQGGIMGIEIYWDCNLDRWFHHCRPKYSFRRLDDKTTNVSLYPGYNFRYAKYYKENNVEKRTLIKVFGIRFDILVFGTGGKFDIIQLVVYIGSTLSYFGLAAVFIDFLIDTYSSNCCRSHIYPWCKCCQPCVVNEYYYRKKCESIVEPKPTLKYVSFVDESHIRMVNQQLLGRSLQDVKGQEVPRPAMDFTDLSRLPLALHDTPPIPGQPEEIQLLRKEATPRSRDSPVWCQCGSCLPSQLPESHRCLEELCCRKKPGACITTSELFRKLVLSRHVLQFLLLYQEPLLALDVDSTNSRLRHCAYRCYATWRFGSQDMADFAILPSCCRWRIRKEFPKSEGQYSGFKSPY
# Homo sapiens [2] = organism: Homo sapiens; experiment: Antiproliferative activity against human TS15-88 cells at 50 uM after 72 hrs by MTS assay; type: functional, cell-based
# Homo sapiens [3] = organism: Homo sapiens; experiment: Antiproliferative activity against human TS15-88 cells at 50 uM after 24 hrs by MTS assay; type: functional, cell-based
# [4] = target: T2, P2X purinoceptor 7 (Homo sapiens) (UniProt Q99572); experiment: Antagonist activity at human P2X7 receptor expressed in HEK293 cells assessed as inhibition of BzATP-induced EtBr uptake at 1 uM after 2 hrs by fluorescence assay relative to control; type: cell-based
# T2 sequence (whole entry): T1 sequence (Q99572 whole entry)
# [5] = Antiproliferative activity against human TS15-88 cells after 24 to 72 hrs by MTS assay; type: functional, cell-based
# [6] = Inhibition of neurosphere formation in human TS15-88 cells assessed as decrease in sphere size at 50 uM after 5 days by microscopic analysis relative to control; type: functional; settings: 120 h
# [7] = Cytotoxicity against HEK293 cells expressing human P2X7 receptor assessed as cell survival at 10 uM by MTT assay relative to control; type: cell-based; settings: read-out: Survival
# [8] = target: T2, P2X purinoceptor 7 (Homo sapiens); experiment: Antagonist activity at human P2X7 receptor expressed in HEK293 cells assessed as inhibition of BzATP-induced EtBr uptake at 10 uM after 2 hrs by fluorescence assay relative to control; type: cell-based
# P2X purinoceptor 7 [9] = target: T1, P2X purinoceptor 7; experiment: Antagonist activity at human P2X7 receptor expressed in HEK293 cells assessed as inhibition of BzATP-induced EtBr uptake after 2 hrs by fluorescence assay relative to control; type: cell-based
# P2X purinoceptor 3 = target: T3, P2X purinoceptor 3 (Homo sapiens, UniProt P56373); experiment: Antagonist activity at human P2X3 receptor expressed in 1321N1 cells assessed as inhibition of ATP-induced calcium flux measured for 30 secs at 0.4 secs intervals by Flou-4-AM dye based fluorescence assay; type: cell-based; settings: read-out: IC50
# T3 sequence (P56373 whole entry): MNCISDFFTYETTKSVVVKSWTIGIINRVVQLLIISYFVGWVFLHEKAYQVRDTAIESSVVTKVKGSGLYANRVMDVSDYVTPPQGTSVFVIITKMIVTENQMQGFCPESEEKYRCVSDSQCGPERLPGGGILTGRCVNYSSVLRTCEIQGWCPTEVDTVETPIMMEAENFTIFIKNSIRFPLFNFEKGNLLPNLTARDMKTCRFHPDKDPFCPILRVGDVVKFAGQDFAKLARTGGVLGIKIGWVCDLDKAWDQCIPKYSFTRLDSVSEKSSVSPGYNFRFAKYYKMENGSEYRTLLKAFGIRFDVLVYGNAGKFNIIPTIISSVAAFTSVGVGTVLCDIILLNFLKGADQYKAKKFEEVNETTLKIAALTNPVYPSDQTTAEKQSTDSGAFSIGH
# [10] = target: T4, P2X purinoceptor 1 (Homo sapiens) (UniProt P51575); experiment: Antagonist activity at human P2X1 receptor expressed in 1321N1 cells assessed as inhibition of ATP-induced calcium flux at 1 uM measured for 30 secs at 0.4 secs intervals by Flou-4-AM dye based fluorescence assay relative to control; type: cell-based
# T4 sequence (whole entry): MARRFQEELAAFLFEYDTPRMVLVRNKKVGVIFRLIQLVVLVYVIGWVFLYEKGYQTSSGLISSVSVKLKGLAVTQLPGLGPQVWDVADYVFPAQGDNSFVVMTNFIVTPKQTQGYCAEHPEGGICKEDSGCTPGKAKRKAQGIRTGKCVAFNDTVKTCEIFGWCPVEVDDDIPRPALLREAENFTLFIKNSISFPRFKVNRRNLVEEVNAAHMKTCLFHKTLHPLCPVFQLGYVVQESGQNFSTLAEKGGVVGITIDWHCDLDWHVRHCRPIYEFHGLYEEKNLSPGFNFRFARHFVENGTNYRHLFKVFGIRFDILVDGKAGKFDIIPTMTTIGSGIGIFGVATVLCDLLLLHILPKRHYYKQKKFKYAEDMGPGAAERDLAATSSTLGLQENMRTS
# [11] = target: T5, P2X purinoceptor 4 (Homo sapiens) (UniProt Q99571); experiment: Antagonist activity at human P2X4 receptor expressed in 1321N1 cells assessed as inhibition of ATP-induced calcium flux at 1 uM measured for 30 secs at 0.4 secs intervals by Flou-4-AM dye based fluorescence assay relative to control; type: cell-based
# T5 sequence (whole entry): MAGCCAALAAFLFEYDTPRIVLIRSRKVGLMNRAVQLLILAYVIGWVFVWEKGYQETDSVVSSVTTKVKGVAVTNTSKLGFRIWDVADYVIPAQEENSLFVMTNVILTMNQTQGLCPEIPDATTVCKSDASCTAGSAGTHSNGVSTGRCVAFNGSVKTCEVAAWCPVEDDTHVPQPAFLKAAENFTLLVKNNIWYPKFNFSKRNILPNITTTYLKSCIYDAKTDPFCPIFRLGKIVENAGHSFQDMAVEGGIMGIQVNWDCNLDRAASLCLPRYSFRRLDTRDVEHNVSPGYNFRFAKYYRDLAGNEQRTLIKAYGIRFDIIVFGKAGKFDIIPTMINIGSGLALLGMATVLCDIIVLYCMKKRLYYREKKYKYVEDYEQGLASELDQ
# [12] = target: T6, P2X purinoceptor 2 (Homo sapiens) (UniProt Q9UBL9); experiment: Antagonist activity at human P2X2 receptor expressed in 1321N1 cells assessed as inhibition of ATP-induced calcium flux at 1 uM measured for 30 secs at 0.4 secs intervals by Flou-4-AM dye based fluorescence assay relative to control; type: cell-based
# T6 sequence (whole entry): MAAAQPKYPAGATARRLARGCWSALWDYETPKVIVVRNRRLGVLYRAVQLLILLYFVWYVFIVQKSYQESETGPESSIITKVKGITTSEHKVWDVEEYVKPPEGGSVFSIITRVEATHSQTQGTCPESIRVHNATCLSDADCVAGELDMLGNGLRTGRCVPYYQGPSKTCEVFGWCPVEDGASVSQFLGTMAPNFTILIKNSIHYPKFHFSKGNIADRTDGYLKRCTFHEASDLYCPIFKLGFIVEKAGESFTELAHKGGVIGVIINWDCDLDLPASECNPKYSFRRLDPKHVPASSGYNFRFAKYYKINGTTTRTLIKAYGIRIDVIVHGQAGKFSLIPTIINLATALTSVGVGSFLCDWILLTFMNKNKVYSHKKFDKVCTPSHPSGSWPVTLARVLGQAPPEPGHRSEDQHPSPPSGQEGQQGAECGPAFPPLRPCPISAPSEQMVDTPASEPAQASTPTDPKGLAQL
# [13] = target: T2, P2X purinoceptor 7 (Homo sapiens); experiment: Antagonist activity at P2X7 in LPS/IFN gamma differentiated human THP-1 cells assessed as inhibition of BzATP-induced IL-1beta release at 1 uM preincubated for 30 mins followed by BzATP stimulation for 30 mins by ELISA; type: cell-based
# [14] = target: T2, P2X purinoceptor 7 (Homo sapiens); experiment: Antagonist activity at P2X7 in LPS/IFN gamma differentiated human THP-1 cells assessed as inhibition of BzATP-induced IL-1beta release at 10 uM preincubated for 30 mins followed by BzATP stimulation for 30 mins by ELISA; type: cell-based
# [15] = Kinetic solubility of the compound in PAMPA buffer at 25 uM by nepheolometry method; type: physicochemical
# [16] = Metabolic stability in mouse liver microsomes assessed as parent compound remaining at 1 uM up to 30 mins in presence of NADPH by LC-MS/MS analysis; type: ADME, microsome; settings: read-out: Stability
# [17] = Metabolic stability in rat liver microsomes assessed as parent compound remaining at 1 uM up to 30 mins in presence of NADPH by LC-MS/MS analysis; type: ADME, microsome; settings: read-out: Stability
# [18] = Kinetic solubility of the compound in PAMPA buffer at 12.5 uM by nepheolometry method; type: physicochemical
# [19] = Effective permeability of the compound at 50 uM after 4 hrs by BBB-PAMPA method; type: ADME; settings: read-out: Peff
# [20] = Kinetic solubility of the compound in PAMPA buffer at 50 uM by nepheolometry method; type: physicochemical
# [21] = Metabolic stability in human liver microsomes assessed as parent compound remaining at 1 uM up to 30 mins in presence of NADPH by LC-MS/MS analysis; type: ADME, microsome; settings: read-out: Stability
# P2X purinoceptor 7 [22] = target: T1, P2X purinoceptor 7; experiment: Antagonist activity at human P2X7 receptor in expressed in HEK293 cells assessed as inhibition of BzATP-induced EtBr uptake; type: cell-based
inhibition [13],inhibition [14] [%],Compound,IC50 (P2X purinoceptor 7 [1]) [nM],Activity (Homo sapiens [2]),Activity (Homo sapiens [3]),inhibition [4] [%],inhibition at 50 µM [6] [%],viability at 10 µM [7] [%],inhibition [8] [%],IC50 (P2X purinoceptor 7 [9]) [nM],other results
,,COC(=O)c1ccc(-c2ccc3c(NC(=O)CC45CC6CC(CC(C6)C4)C5)cccc3n2)cc1,33,Active,Active,90,> 50,97,95,7,IC50 [5]: 35600 nM
,,COc1ccc(-c2ccc3c(NC(=O)CC45CC6CC(CC(C6)C4)C5)cccc3n2)cc1,29,Active,inactive,89,> 50,90,97,18,IC50 (P2X purinoceptor 3): 3000 nM; inhibition [10]: 25%; inhibition [11]: 17%; inhibition [12]: 3%
7%,44,CCOC(=O)c1cc2c(NC(=O)C34CC5CC(CC(C5)C3)C4)cccc2n(Cc2ccc(OC)cc2)c1=O,,,,86,,,88,62,
,,Nc1ccc(-c2ccc3c(NC(=O)CC45CC6CC(CC(C6)C4)C5)cccc3n2)cc1,19,Active,Active,85,> 50,98,93,10,"Kinetic_solubility [15]: Soluble; remaining at 0.5 h, 1 µM [16]: 13.3%; remaining at 0.5 h, 1 µM [17]: 10.6%; Kinetic_solubility [18]: Soluble; Papp at 4 h, 50 µM [19]: 24.9 ×10⁻⁶ cm/s; Kinetic_solubility [20]: Soluble; remaining at 0.5 h, 1 µM [21]: 15.5%"
,,COc1ccc(CCN(C)CCCC(C#N)(c2ccc(OC)c(OC)c2)C(C)C)cc1OC (stereo not drawn),,,,,,,,,"remaining at 0.5 h, 1 µM [21]: 10.5%"
inactive,49,COC(=O)c1cc2c(NC(=O)C34CC5CC(CC(C5)C3)C4)cccc2n(Cc2ccc(OC)cc2)c1=O,,,,76,,,87,120,
11%,28,CCCOC(=O)c1cc2c(NC(=O)C34CC5CC(CC(C5)C3)C4)cccc2n(Cc2ccc(OC)cc2)c1=O,,,,82,,,87,263,
,,O=C1NC(=O)C(C2CCN(C(=O)c3ccc(Cl)c(C(F)(F)F)c3)CC2)C1Cc1ccc(OS(=O)(=O)c2cccc3cnccc23)cc1 (stereo not drawn),,,,,,,,,IC50 (P2X purinoceptor 7 [22]): 54 nM

# — ChEMBL document CHEMBL4152208, “Synthesis and structure-activity relationships of quinolinone and quinoline-based P2X7 receptor antagonists and their anti-sphere formation activities in glioblastoma cells” (Eur J Med Chem, 2018)
